Measured values taken from the NIST ThermoML archive (doi:10.1016/j.jct.2019.01.021).

Details: for molar entropy: 101.33 kPa, Small (less than 1 g) adiabatic calorimetry

N.NS(=O)(=O)O [ammonium sulfamate]
Details | molar entropy [J/K/mol]
5 K, Crystal 2 | 0.0002827
10 K, Crystal 2 | 0.07483
15 K, Crystal 2 | 0.4656
20 K, Crystal 2 | 1.33
25 K, Crystal 2 | 2.661
30 K, Crystal 2 | 4.49
35 K, Crystal 2 | 6.735
40 K, Crystal 2 | 9.229
45 K, Crystal 2 | 12.14
50 K, Crystal 2 | 15.13
55 K, Crystal 2 | 18.29
60 K, Crystal 2 | 21.53
65 K, Crystal 2 | 24.86
70 K, Crystal 2 | 28.35
75 K, Crystal 2 | 31.84
80 K, Crystal 2 | 35.42
90 K, Crystal 2 | 42.65
100 K, Crystal 2 | 49.97
110 K, Crystal 2 | 57.29
120 K, Crystal 2 | 64.6
130 K, Crystal 2 | 71.75
140 K, Crystal 2 | 78.82
150 K, Crystal 2 | 85.64
160 K, Crystal 2 | 92.29
170 K, Crystal 2 | 98.94
180 K, Crystal 2 | 105.59
190 K, Crystal 2 | 112.25
200 K, Crystal 2 | 118.07
210 K, Crystal 2 | 123.89
220 K, Crystal 2 | 130.54
230 K, Crystal 2 | 136.36
240 K, Crystal 2 | 141.35
260 K, Crystal 1 | 152.99
270 K, Crystal 1 | 157.97
280 K, Crystal 1 | 163.79
290 K, Crystal 1 | 168.78
298.15 K, Crystal 1 | 172.94
300 K, Crystal 1 | 173.77
310 K, Crystal 1 | 178.76
320 K, Crystal 1 | 183.75
330 K, Crystal 1 | 188.74

Details | Normal melting temperature [°C] | Triple point temperature [K]
Crystal 1, DTA | 133.0 | –
Crystal 2, Adiabatic calorimetry | – | 254.5
